Source: patent publication US20230220006A1, “REGENTIDE-034 AND COMPOSITION FOR IMPROVING CONDITION OF SKIN, CONTAINING SAME” (NI[…]., LTD., priority 2020, published 2023)
Where a SMILES comes first, the peptide text is derived from it.

Key:
[1] = system: HaCaT cells; experiment: Cytotoxicity evaluation (CCK8) in epidermal keratinocytes; format: cell-based, human; details: 5 µM or 10 µM, 48 hours, FBS-free medium
Procedure: (§1) The cytotoxicity of Regentide-034 prepared in Example 1 above was evaluated. Specifically, cytotoxicities were measured in HaCaT cells, which are human epidermal keratinocytes, and CCD-986Sk, which is human fibroblasts. Keratinocytes were dispensed at 3 × 10^3 cells/well and fibroblasts were dispensed at 5 × 10^3 cells/well in a 96-well plate, and then cultured in cell culture conditions for 24 hours in a medium containing 10% FBS. After culturing, 5 µM or 10 µM of Regentide-034 was added to an FBS-free medium, and this was cultured for 48 hours. Thereafter, 10 µl per well of CCK8 reaction solution (Dojindo Molecular Technologies, Kumamoto, Japan) was treated and reacted for 4 hours, and then absorbance was measured at 450 nm. The average absorbance value for each sample group was obtained, and the cell viability was evaluated by comparing it with the absorbance value of cells that had not been treated with Regentide-034 as a control group.

[2] = system: CCD-986Sk; experiment: Cytotoxicity evaluation (CCK8) in fibroblasts; format: cell-based, human; details: 5 µM or 10 µM, 48 hours, FBS-free medium
Procedure: as §1

C[C@H](N)C(=O)N[C@@H](Cc1ccc(O)cc1)C(=O)NCC(=O)N[C@@H](CS)C(=O)N[C@@H](Cc1ccc(O)cc1)C(=O)N[C@@H](CS)C(=O)NCC(=O)N[C@@H](Cc1c[nH]c2ccccc12)C(=O)NCC(=O)NCC(N)=O [Regentide-034, AYGCYCGWGG-NH2] (H-AYGCYCGWGG-NH2)
cytotoxicity (cell viability) to epidermal keratinocytes [1]: not toxic
cytotoxicity (cell viability) to fibroblasts [2]: not toxic
